Test results as given in ChEMBL document CHEMBL3217454, “Structureactivity relationship studies using peptide arrays: the example of HIV-1 Revintegrase interaction” (Medchemcomm, 2013).
Square brackets hold non-standard residues; d marks the D form. Peptide text beside a SMILES is read from it. NMeR = CN[C@@H](CCCNC(=N)N)C(=O)O; NMeT = CN[C@H](C(=O)O)[C@@H](C)O; NMeK = CN[C@@H](CCCCN)C(=O)O; NMeM = CN[C@@H](CCSC)C(=O)O; NMeV = CN[C@H](C(=O)O)C(C)C; NMeS = CN[C@@H](CO)C(=O)O

How the values were obtained:
Set-up in all cases: concentration or dose not given beside the values
[1] = molecular target: Human immunodeficiency virus type 1 integrase (Human immunodeficiency virus 1) (UniProt Q7ZJM1); experiment: Binding affinity to HIV-1 integrase measured after overnight incubation by chemiluminescence analysis relative to IN 118-128
[2] = system: Human immunodeficiency virus 1; experiment: Binding affinity to HLT-tagged HIV-1 Rev measured after overnight incubation by chemiluminescence analysis relative to IN 118-128
[3] = molecular target: Human immunodeficiency virus type 1 integrase (Human immunodeficiency virus 1) (UniProt Q7ZJM1); experiment: Binding affinity to HIV-1 integrase measured after overnight incubation by chemiluminescence analysis relative to IN 174-188
[4] = system: Human immunodeficiency virus 1; experiment: Binding affinity to HLT-tagged HIV-1 Rev measured after overnight incubation by chemiluminescence analysis relative to IN 174-188

Human immunodeficiency virus type 1 integrase (Human immunodeficiency virus 1), sequence (Q7ZJM1 as listed by the source): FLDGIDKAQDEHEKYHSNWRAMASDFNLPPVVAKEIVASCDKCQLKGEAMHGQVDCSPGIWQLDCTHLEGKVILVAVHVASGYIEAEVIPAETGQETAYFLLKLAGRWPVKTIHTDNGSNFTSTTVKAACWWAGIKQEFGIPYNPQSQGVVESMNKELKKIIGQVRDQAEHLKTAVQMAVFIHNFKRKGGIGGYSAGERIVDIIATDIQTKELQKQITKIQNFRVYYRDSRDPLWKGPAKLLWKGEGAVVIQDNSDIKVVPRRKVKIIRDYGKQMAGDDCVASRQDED

| SMILES | Activity [1] | Activity [2] | Activity [3] | Activity [4] |
| --- | --- | --- | --- | --- |
| CC(C)[C@H](NC(=O)[C@@H](NC(=O)[C@@H](NC(=O)[C@H](CO)NC(=O)[C@@H](NC(=O)[C@H](Cc1ccccc1)NC(=O)[C@H](CC(N)=O)NC(=O)[C@H](CO)NC(=O)[C@H](C)N)[C@@H](C)O)[C@@H](C)O)[C@@H](C)O)C(=O)N[C@@H](CCCCN)C(=O)N[C@@H](C)C(=O)O (H-ASNFTSTTVKA-OH) | 116% | 77% |  |  |
| CC(C)[C@H](NC(=O)[C@@H](NC(=O)[C@@H](NC(=O)[C@H](CO)NC(=O)[C@@H](NC(=O)[C@H](Cc1ccccc1)NC(=O)[C@H](CC(N)=O)NC(=O)[C@@H](CO)NC(=O)CN)[C@@H](C)O)[C@@H](C)O)[C@@H](C)O)C(=O)N[C@@H](CCCCN)C(=O)N[C@@H](C)C(=O)O | 346% | 190% |  |  |
| CC(C)[C@H](NC(=O)[C@@H](NC(=O)[C@@H](NC(=O)[C@H](CO)NC(=O)[C@@H](N)[C@@H](C)O)[C@@H](C)O)[C@@H](C)O)C(=O)N[C@@H](CCCCN)C(=O)N[C@@H](C)C(=O)O (H-TSTTVKA-OH) | 135% | 111% |  |  |
| C[C@@H](O)[C@H](NC(=O)[C@H](Cc1ccccc1)NC(=O)[C@H](CC(N)=O)NC(=O)[C@H](CO)NC(=O)CN)C(=O)N[C@@H](CO)C(=O)O (H-GSNFTS-OH) | 0% | 0% |  |  |
| CC(C)[C@H](NC(=O)[C@@H](NC(=O)[C@H]([C@@H](C)O)N(C)C(=O)[C@H](CO)NC(=O)[C@@H](NC(=O)[C@H](Cc1ccccc1)NC(=O)[C@H](CC(N)=O)NC(=O)[C@H](CO)NC(=O)CN)[C@@H](C)O)[C@@H](C)O)C(=O)N[C@@H](CCCCN)C(=O)N[C@@H](C)C(=O)O (H-GSNFTS[NMeT]TVKA-OH) | 249% | 197% |  |  |
| CC(C)[C@H](NC(=O)[C@@H](NC(=O)[C@@H](NC(=O)[C@H](CO)N(C)C(=O)[C@@H](NC(=O)[C@H](Cc1ccccc1)NC(=O)[C@H](CC(N)=O)NC(=O)[C@H](CO)NC(=O)CN)[C@@H](C)O)[C@@H](C)O)[C@@H](C)O)C(=O)N[C@@H](CCCCN)C(=O)N[C@@H](C)C(=O)O (H-GSNFT[NMeS]TTVKA-OH) | 312% | 279% |  |  |
| CC(C)[C@H](NC(=O)[C@H](C)NC(=O)[C@@H](NC(=O)[C@H](CO)NC(=O)[C@@H](NC(=O)[C@H](Cc1ccccc1)NC(=O)[C@H](CC(N)=O)NC(=O)[C@H](CO)NC(=O)CN)[C@@H](C)O)[C@@H](C)O)C(=O)N[C@@H](CCCCN)C(=O)N[C@@H](C)C(=O)O (H-GSNFTSTAVKA-OH) | 182% | 124% |  |  |
| CC[C@H](C)[C@H](NC(=O)[C@H](Cc1ccccc1)NC(=O)[C@@H](NC(=O)[C@H](C)NC(=O)[C@H](CCSC)NC(=O)[C@H](CCC(N)=O)NC(=O)[C@@H](NC(=O)[C@H](C)N)C(C)C)C(C)C)C(=O)N[C@@H](Cc1cnc[nH]1)C(=O)N[C@@H](CC(N)=O)C(=O)N[C@@H](Cc1ccccc1)C(=O)N[C@@H](CCCCN)C(=O)N[C@@H](CCCNC(=N)N)C(=O)N[C@@H](CCCCN)C(=O)O (H-AVQMAVFIHNFKRK-OH) |  |  | 99% | 141% |
| CC[C@H](C)[C@H](NC(=O)[C@H](Cc1ccccc1)NC(=O)[C@@H](NC(=O)[C@H](C)NC(=O)[C@H](CCSC)NC(=O)[C@H](CCC(N)=O)NC(=O)[C@@H](NC(=O)[C@H](C)NC(=O)[C@@H](N)[C@@H](C)O)C(C)C)C(C)C)C(=O)N[C@@H](Cc1cnc[nH]1)C(=O)N[C@@H](CC(N)=O)C(=O)N[C@@H](Cc1ccccc1)C(=O)N[C@@H](CCCCN)C(=O)N(C)[C@@H](CCCNC(=N)N)C(=O)N[C@@H](CCCCN)C(=O)O (H-TAVQMAVFIHNFK[NMeR]K-OH) |  |  | 123% | 75% |
| CC[C@H](C)[C@H](NC(=O)[C@H](Cc1ccccc1)NC(=O)[C@@H](NC(=O)[C@H](C)NC(=O)[C@H](CCSC)NC(=O)[C@H](CCC(N)=O)NC(=O)[C@@H](NC(=O)[C@H](C)NC(=O)[C@@H](N)[C@@H](C)O)C(C)C)C(C)C)C(=O)N[C@H](Cc1cnc[nH]1)C(=O)N[C@@H](CC(N)=O)C(=O)N[C@@H](Cc1ccccc1)C(=O)N[C@@H](CCCCN)C(=O)N[C@@H](CCCNC(=N)N)C(=O)N[C@@H](CCCCN)C(=O)O |  |  | 105% | 105% |
| CC[C@H](C)[C@H](NC(=O)[C@H](Cc1ccccc1)NC(=O)[C@@H](NC(=O)[C@H](C)NC(=O)[C@H](CCSC)NC(=O)[C@H](CCC(N)=O)NC(=O)[C@H](C)NC(=O)[C@H](C)NC(=O)[C@@H](N)[C@@H](C)O)C(C)C)C(=O)N[C@@H](Cc1cnc[nH]1)C(=O)N[C@@H](CC(N)=O)C(=O)N[C@@H](Cc1ccccc1)C(=O)N[C@@H](CCCCN)C(=O)N[C@@H](CCCNC(=N)N)C(=O)N[C@@H](CCCCN)C(=O)O (H-TAAQMAVFIHNFKRK-OH) |  |  | 115% | 106% |
| CC[C@H](C)[C@H](NC(=O)[C@H](Cc1ccccc1)NC(=O)[C@@H](NC(=O)[C@H](C)NC(=O)[C@H](CCSC)NC(=O)[C@H](CCC(N)=O)NC(=O)[C@@H](NC(=O)[C@H](C)NC(=O)[C@@H](N)[C@@H](C)O)C(C)C)C(C)C)C(=O)N[C@@H](Cc1cnc[nH]1)C(=O)N[C@@H](CC(N)=O)C(=O)N[C@@H](Cc1ccccc1)C(=O)N[C@@H](CCCCN)C(=O)N[C@@H](CCCNC(=N)N)C(=O)N(C)[C@@H](CCCCN)C(=O)O (H-TAVQMAVFIHNFKR[NMeK]-OH) |  |  | 117% | 201% |
| CC[C@H](C)[C@H](NC(=O)[C@H](Cc1ccccc1)NC(=O)[C@@H](NC(=O)[C@H](C)NC(=O)[C@H](CCSC)NC(=O)[C@H](CCC(N)=O)NC(=O)[C@H](C(C)C)N(C)C(=O)[C@H](C)NC(=O)[C@@H](N)[C@@H](C)O)C(C)C)C(=O)N[C@@H](Cc1cnc[nH]1)C(=O)N[C@@H](CC(N)=O)C(=O)N[C@@H](Cc1ccccc1)C(=O)N[C@@H](CCCCN)C(=O)N[C@@H](CCCNC(=N)N)C(=O)N[C@@H](CCCCN)C(=O)O (H-TA[NMeV]QMAVFIHNFKRK-OH) |  |  | 118% | 110% |
| CC[C@H](C)[C@H](NC(=O)[C@H](Cc1ccccc1)NC(=O)[C@@H](NC(=O)[C@H](C)NC(=O)[C@H](CCSC)NC(=O)[C@H](CCC(N)=O)NC(=O)[C@@H](NC(=O)[C@H](C)NC(=O)[C@@H](NC)[C@@H](C)O)C(C)C)C(C)C)C(=O)N[C@@H](Cc1cnc[nH]1)C(=O)N[C@@H](CC(N)=O)C(=O)N[C@@H](Cc1ccccc1)C(=O)N[C@@H](CCCCN)C(=O)N[C@@H](CCCNC(=N)N)C(=O)N[C@@H](CCCCN)C(=O)O (H-[NMeT]AVQMAVFIHNFKRK-OH) |  |  | 84% | 93% |
| CC[C@H](C)[C@H](NC(=O)[C@H](Cc1ccccc1)NC(=O)[C@@H](NC(=O)[C@H](C)NC(=O)[C@H](CCSC)NC(=O)[C@@H](N)CCC(N)=O)C(C)C)C(=O)N[C@@H](Cc1cnc[nH]1)C(=O)N[C@@H](CC(N)=O)C(=O)N[C@@H](Cc1ccccc1)C(=O)N[C@@H](CCCCN)C(=O)N[C@@H](CCCNC(=N)N)C(=O)N[C@@H](CCCCN)C(=O)O (H-QMAVFIHNFKRK-OH) |  |  | 122% | 135% |
| CC[C@H](C)[C@H](NC(=O)[C@H](Cc1ccccc1)NC(=O)[C@@H](NC(=O)[C@H](C)NC(=O)[C@H](CCSC)N(C)C(=O)[C@H](CCC(N)=O)NC(=O)[C@@H](NC(=O)[C@H](C)NC(=O)[C@@H](N)[C@@H](C)O)C(C)C)C(C)C)C(=O)N[C@@H](Cc1cnc[nH]1)C(=O)N[C@@H](CC(N)=O)C(=O)N[C@@H](Cc1ccccc1)C(=O)N[C@@H](CCCCN)C(=O)N[C@@H](CCCNC(=N)N)C(=O)N[C@@H](CCCCN)C(=O)O (H-TAVQ[NMeM]AVFIHNFKRK-OH) |  |  | 103% | 134% |
| CC[C@H](C)[C@H](NC(=O)[C@H](Cc1ccccc1)NC(=O)[C@H](NC(=O)[C@H](C)NC(=O)[C@H](CCSC)NC(=O)[C@H](CCC(N)=O)NC(=O)[C@@H](NC(=O)[C@H](C)NC(=O)[C@@H](N)[C@@H](C)O)C(C)C)C(C)C)C(=O)N[C@@H](Cc1cnc[nH]1)C(=O)N[C@@H](CC(N)=O)C(=O)N[C@@H](Cc1ccccc1)C(=O)N[C@@H](CCCCN)C(=O)N[C@@H](CCCNC(=N)N)C(=O)N[C@@H](CCCCN)C(=O)O |  |  | 108% | 152% |
| CC[C@H](C)[C@H](NC(=O)[C@H](Cc1ccccc1)NC(=O)[C@@H](NC(=O)[C@H](C)NC(=O)[C@H](CCSC)NC(=O)[C@H](CCC(N)=O)NC(=O)[C@@H](NC(=O)[C@H](C)NC(=O)[C@@H](N)[C@@H](C)O)C(C)C)C(C)C)C(=O)N[C@@H](Cc1cnc[nH]1)C(=O)N[C@@H](CC(N)=O)C(=O)N[C@@H](Cc1ccccc1)C(=O)O (H-TAVQMAVFIHNF-OH) |  |  | 0% | 0% |
| CC[C@H](C)[C@H](NC(=O)[C@H](Cc1ccccc1)NC(=O)[C@@H](NC(=O)[C@H](C)NC(=O)[C@H](CCSC)NC(=O)[C@H](CCC(N)=O)NC(=O)[C@@H](NC(=O)[C@@H](C)NC(=O)[C@@H](N)[C@@H](C)O)C(C)C)C(C)C)C(=O)N[C@@H](Cc1cnc[nH]1)C(=O)N[C@@H](CC(N)=O)C(=O)N[C@@H](Cc1ccccc1)C(=O)N[C@@H](CCCCN)C(=O)N[C@@H](CCCNC(=N)N)C(=O)N[C@@H](CCCCN)C(=O)O |  |  | 105% | 209% |
| CC[C@H](C)[C@H](NC(=O)[C@H](Cc1ccccc1)NC(=O)[C@@H](NC(=O)[C@H](C)NC(=O)[C@H](CCSC)NC(=O)[C@H](CCC(N)=O)NC(=O)[C@@H](NC(=O)[C@H](C)NC(=O)[C@@H](N)[C@@H](C)O)C(C)C)C(C)C)C(=O)N[C@@H](Cc1cnc[nH]1)C(=O)N[C@@H](CC(N)=O)C(=O)N[C@@H](Cc1ccccc1)C(=O)N[C@@H](CCCCN)C(=O)N[C@@H](CCCNC(=N)N)C(=O)N[C@@H](C)C(=O)O (H-TAVQMAVFIHNFKRA-OH) |  |  | 109% | 209% |
| CC[C@H](C)[C@H](NC(=O)[C@@H](Cc1ccccc1)NC(=O)[C@@H](NC(=O)[C@H](C)NC(=O)[C@H](CCSC)NC(=O)[C@H](CCC(N)=O)NC(=O)[C@@H](NC(=O)[C@H](C)NC(=O)[C@@H](N)[C@@H](C)O)C(C)C)C(C)C)C(=O)N[C@@H](Cc1cnc[nH]1)C(=O)N[C@@H](CC(N)=O)C(=O)N[C@@H](Cc1ccccc1)C(=O)N[C@@H](CCCCN)C(=O)N[C@@H](CCCNC(=N)N)C(=O)N[C@@H](CCCCN)C(=O)O |  |  | 120% | 231% |
